Laboratory results reported in patent US10112922B2, “Inhibitor of bruton's tyrosine kinase” (Centaurus BioPharma Co., Ltd., priority 2014, dated 2018).
Blank lines part the entries; values can stand above or below the compound they belong to.

What was measured:
ITK kinase = ITK kinase (Homo sapiens (Human), UniProt Q08881); assay: ITK kinase enzymatic assay (same HTRF method as BTK); type: biochemical; conditions: Table 1; read-out: Itk IC50
Method: (§1) The compounds were gradiently diluted 3 folds starting from 1 mM with 100% DMSO (totally 11 concentrations). 4 μL of each sample with a different concentration was added into 96 μL of reaction buffer (50 mM HEPES, pH 7.4, 10 mM MgCl2, 1 mM EGTA, 0.01% Tween-20, 0.005% BAS, 2 mM DTT). […] The mixture was centrifuged to mix well, followed by adding 2.5 μL of a mixture of ATP (final concentration designated as Km) and TK petide (HTRF® KinEASE™-TK, Cisbio) to initiate the reaction (total reaction volume being 10 μL). […] The enzyme activity for each compound was determined at 11 concentrations, and IC50 values were obtained by GraFit Software 6.0 (Erithacus Software).
In vitro activity in inhibiting ITK kinase was determined similar to that in respect of BTK kinase.

Btk kinase = Btk kinase (Homo sapiens (Human), UniProt Q06187); assay: Btk kinase enzymatic activity assay (HTRF); type: biochemical; conditions: Table 1; read-out: Btk IC50
Method: The half inhibition concentrations (IC50 values) of the compounds disclosed herein on Btk were determined at both enzymatic level and cellular level: the ability of the compounds to inhibit the activity of Btk kinase was determined in an enzymtic activity assay, and the inhibitory effect of the compounds on BCR-induced calcium flux in cells was determined in a cellular function assay.
as §1

OCI-LY-10 cells = assay: Efficacy in subcutaneously xenografted tumor model in mice; type: in vivo, CB-17 SCID mice
Method: SPF grade female CB-17 SCID mice (4-5 week) were used. 0.1 ml of OCI-LY-10 cells suspended in serum-free medium (containing 5×10^6 cells, 30% Matrigel) were injected subcutaneously in both the left and the right flanks of mice. Mice were grouped and numbered when the average tumor volumes were more than 100 mm3, and the body weights and tumor volumes were determined. The mice were randomly grouped according to tumor volumes, and appropriate adjustments were made so that the average body weight in each group is on the same level. Animals were dosed orally on the same day when they were grouped, and body weights and tumor volumes were measured twice a week. Relative tumor growth (T/C) and Tumor growth inhibition (TGI) were the major test indeces.
The equation for calculating the tumor volume is V=0.5×a×b^2, wherein v is the tumor volume, a and b are the length and the width of the tumor, respectively. The relative tumor volume (RTV) was calculated according to the tumor volume with the equation RTV=Vt/V0, wherein V0 was the tumor volume at the time when the animals were grouped, and Vt was the tumor volume at indicated time points. The equation for calculating the relative tumor proliferation rate was T/C (%)=TRTV/CRTV*100%. (TRTV was the RTV of treated group, and CRTV was the RTV of control group).
The equation for calculating the tumor growth inhibition rate was TGI (%)=(1−(tumor volume of the treated group−tumor volume of the treated group at the time when the animals were grouped)/(tumor volume of the control group−tumor volume of the control group at the time when the animals were grouped))*100%.

[1] = Toxicity test in mice (7-day oral administration); type: in vivo, CD-1 (ICR) mice; conditions: for Average body weight of mice / Changes (%) in mice body weight in treated group over control group: 1000 mg/kg oral once a day
Source text: Body weights and conditions of mice were monitored every day, during which all mice were not fasting.

[2] = 1000 mg/kg oral once a day for 7 days

Btk kinase, sequence (Q06187 whole entry): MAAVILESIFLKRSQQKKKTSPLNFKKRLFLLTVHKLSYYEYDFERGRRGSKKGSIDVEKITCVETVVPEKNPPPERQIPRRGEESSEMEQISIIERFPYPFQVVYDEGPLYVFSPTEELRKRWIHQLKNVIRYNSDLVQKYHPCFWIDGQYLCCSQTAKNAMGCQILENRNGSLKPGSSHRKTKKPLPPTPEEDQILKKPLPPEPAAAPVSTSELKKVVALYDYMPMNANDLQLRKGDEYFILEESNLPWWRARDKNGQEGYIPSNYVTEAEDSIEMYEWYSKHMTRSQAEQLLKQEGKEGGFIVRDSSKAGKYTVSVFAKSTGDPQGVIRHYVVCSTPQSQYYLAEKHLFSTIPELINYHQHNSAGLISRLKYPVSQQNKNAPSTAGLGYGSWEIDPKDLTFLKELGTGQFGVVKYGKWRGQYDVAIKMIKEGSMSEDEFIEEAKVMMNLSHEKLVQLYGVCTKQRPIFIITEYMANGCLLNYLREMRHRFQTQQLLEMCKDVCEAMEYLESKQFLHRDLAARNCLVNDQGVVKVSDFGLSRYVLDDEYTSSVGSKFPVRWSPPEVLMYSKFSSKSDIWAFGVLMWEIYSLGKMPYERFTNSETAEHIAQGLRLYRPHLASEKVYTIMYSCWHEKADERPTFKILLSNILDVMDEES
ITK kinase, sequence (Q08881 whole entry): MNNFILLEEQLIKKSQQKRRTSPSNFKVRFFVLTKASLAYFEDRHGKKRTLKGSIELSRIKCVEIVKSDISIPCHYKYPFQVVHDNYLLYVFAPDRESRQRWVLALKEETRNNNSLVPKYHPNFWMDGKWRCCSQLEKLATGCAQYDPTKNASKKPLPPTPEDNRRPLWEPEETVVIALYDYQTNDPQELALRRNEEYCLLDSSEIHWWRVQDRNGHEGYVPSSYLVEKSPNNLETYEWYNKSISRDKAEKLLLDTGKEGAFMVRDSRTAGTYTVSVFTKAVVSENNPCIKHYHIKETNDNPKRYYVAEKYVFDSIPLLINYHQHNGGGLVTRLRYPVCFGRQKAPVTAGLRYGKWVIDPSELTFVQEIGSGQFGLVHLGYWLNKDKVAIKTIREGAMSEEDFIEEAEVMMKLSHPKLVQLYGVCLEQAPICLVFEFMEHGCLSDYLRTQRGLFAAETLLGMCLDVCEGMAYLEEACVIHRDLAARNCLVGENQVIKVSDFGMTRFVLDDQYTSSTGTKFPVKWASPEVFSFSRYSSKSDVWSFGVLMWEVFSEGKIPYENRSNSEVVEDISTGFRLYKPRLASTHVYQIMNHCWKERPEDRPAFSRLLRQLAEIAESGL

SMILES: NC(=O)c1c(-c2ccc(Oc3ccccc3)cc2)nn([C@@H]2CCN(C/C=C/C(=O)O)C2)c1N [Example 10, (R,E)-4-(3-(5-amino-4-carbamoyl-3-(4-phenoxyphenyl)-1H-pyrazol-1-yl)pyrrolidin-1-yl)but-2-enoic Acid]
IC50 (ITK kinase): > 1000 nM
IC50 (Btk kinase): < 100 nM

SMILES: NC(=O)c1c(-c2ccc(Oc3ccccc3)cc2)nn([C@@H]2CCN(C(=O)/C=C/CN3CCOCC3)C2)c1N [Example 4, (R,E)-5-amino-1-(1-(4-morpholinobut-2-enoyl)pyrrolidin-3-yl)-3-(4-phenoxyphenyl)-1H-pyrazole-4-carboxamide]
IC50 (ITK kinase): > 1000 nM
IC50 (Btk kinase): < 100 nM

SMILES: C#CC(=O)N1CC[C@@H](n2nc(-c3ccc(Oc4ccccc4)cc3)c(C(N)=O)c2N)C1 [Example 17, (R)-5-amino-3-(4-phenoxyphenyl)-1-(1-propioloylpyrrolidin-3-yl)-1H-pyrazole-4-carboxamide]
IC50 (ITK kinase): < 100 nM
IC50 (Btk kinase): < 100 nM

SMILES: C=CS(=O)(=O)N1CCC[C@@H](n2nc(-c3ccc(Oc4ccccc4)cc3)c(C(N)=O)c2N)C1 [Example 1, (R)-5-amino-3-(4-phenoxyphenyl)-1-(1-(vinylsulfonyl)piperidin-3-yl)-1H-pyrazole-4-carboxamide]
IC50 (ITK kinase): < 100 nM
IC50 (Btk kinase): < 100 nM

SMILES: CC#CC(=O)N[C@H]1CC[C@@H](n2nc(-c3ccc(Oc4ccccc4)cc3)c(C(N)=O)c2N)CC1 [Example 18, 5-amino-1-((1s,4s)-4-(but-2-ynamido)cyclohexyl)-3-(4-phenoxyphenyl)-1H-pyrazole-4-carboxamide]
IC50 (ITK kinase): > 1000 nM
IC50 (Btk kinase): < 100 nM

SMILES: CC#CC(=O)N1CC[C@@H](n2nc(-c3ccc(Oc4ccccc4)cc3)c(C(N)=O)c2N)C1 [Example 16, (R)-5-amino-1-(1-(but-2-ynoyl)pyrrolidin-3-yl)-3-(4-phenoxyphenyl)-1H-pyrazole-4-carboxamide]
IC50 (ITK kinase): > 1000 nM
difference in body weight change from control group [1, 2]: < 2%
toxicity [1, 2]: no toxicity
Average body weight of mice ([1]; Day 1): 24.8 g
Changes (%) in mice body weight in treated group over control group ([1]; Day 1): 100.0%
Average body weight of mice ([1]; Day 2): 25.3 g
Changes (%) in mice body weight in treated group over control group ([1]; Day 2): 101.1%
Average body weight of mice ([1]; Day 3): 25.7 g
Changes (%) in mice body weight in treated group over control group ([1]; Day 3): 100.8%
Average body weight of mice ([1]; Day 4): 25.9 g
Changes (%) in mice body weight in treated group over control group ([1]; Day 4): 100.6%
Average body weight of mice ([1]; Day 5): 26.3 g
Changes (%) in mice body weight in treated group over control group ([1]; Day 5): 99.8%
Average body weight of mice ([1]; Day 6): 26.5 g
Changes (%) in mice body weight in treated group over control group ([1]; Day 6): 98.5%
Average body weight of mice ([1]; Day 7): 26.9 g
Changes (%) in mice body weight in treated group over control group ([1]; Day 7): 98.9%
TGI (%) Day 3 (OCI-LY-10 cells; 50 mg/kg PO BID): 35.97%
TGI (%) Day 8 (OCI-LY-10 cells; 50 mg/kg PO BID): 32.25%
TGI (%) Day 11 (OCI-LY-10 cells; 50 mg/kg PO BID): 44.47%
TGI (%) Day 3 (OCI-LY-10 cells; 100 mg/kg PO QD): 14.97%
TGI (%) Day 8 (OCI-LY-10 cells; 100 mg/kg PO QD): 19.53%
TGI (%) Day 11 (OCI-LY-10 cells; 100 mg/kg PO QD): 29.98%
IC50 (Btk kinase): < 100 nM

SMILES: C=CS(=O)(=O)N1CC[C@@H](n2nc(-c3ccc(Oc4ccccc4)cc3)c(C(N)=O)c2N)C1 [Example 2, (R)-5-amino-3-(4-phenoxyphenyl)-1-(1-(vinylsulfonyl)pyrrolidin-3-yl)-1H-pyrazole-4-carboxamide]
IC50 (ITK kinase): < 100 nM
IC50 (Btk kinase): < 100 nM

SMILES: NC(=O)c1c(-c2ccc(Oc3ccccc3)cc2)nn([C@@H]2CCN(C(=O)/C=C/CN3CCCCC3)C2)c1N [Example 5, (R,E)-5-amino-3-(4-phenoxyphenyl)-1-(1-(4-(piperidin-1-yl)but-2-enoyl)pyrrolidin-3-yl)-1H-pyrazole-4-carboxamide]
IC50 (ITK kinase): > 1000 nM
IC50 (Btk kinase): < 100 nM

Now from value to compound, other results behind:

IC50 (ITK kinase): > 1000 nM
IC50 (Btk kinase): < 100 nM
SMILES: NC(=O)c1c(-c2ccc(Oc3ccccc3)cc2)nn([C@@H]2CCN(C(=O)/C=C/CO)C2)c1N [Example 15, (R,E)-5-amino-1-(1-(4-hydroxybut-2-enoyl)pyrrolidin-3-yl)-3-(4-phenoxyphenyl)-1H-pyrazole-4-carboxamide]

IC50 (ITK kinase): > 1000 nM
IC50 (Btk kinase): < 100 nM
SMILES: CN(C)C/C=C/C(=O)N1CC[C@@H](n2nc(-c3ccc(Oc4ccccc4)cc3)c(C(N)=O)c2N)C1 [Example 3, (R,E)-5-amino-1-(1-(4-(dimethylamino)but-2-enoyl)pyrrolidin-3-yl)-3-(4-phenoxyphenyl)-1H-pyrazole-4-carboxamide]

IC50 (ITK kinase): > 1000 nM
IC50 (Btk kinase): < 100 nM
SMILES: CC(=O)OC/C=C/C(=O)N1CC[C@@H](n2nc(-c3ccc(Oc4ccccc4)cc3)c(C(N)=O)c2N)C1 [Example 13, (R,E)-4-(3-(5-amino-4-carbamoyl-3-(4-phenoxyphenyl)-1H-pyrazol-1-yl)pyrrolidin-1-yl)-4-oxobut-2-en-1-yl acetate]

IC50 (ITK kinase): > 1000 nM
IC50 (Btk kinase): < 100 nM
SMILES: NC(=O)c1c(-c2ccc(Oc3ccccc3)cc2)nn([C@@H]2CCN(C(=O)/C=C/CBr)C2)c1N [Example 12, (R,E)-5-amino-1-(1-(4-bromobut-2-enoyl)pyrrolidin-3-yl)-3-(4-phenoxyphenyl)-1H-pyrazole-4-carboxamide]

IC50 (ITK kinase): > 1000 nM
IC50 (Btk kinase): < 100 nM
SMILES: C/C=C/C(=O)N1CC[C@@H](n2nc(-c3ccc(Oc4ccccc4)cc3)c(C(N)=O)c2N)C1 [Example 7, (R,E)-5-amino-1-(1-(but-2-enoyl)pyrrolidin-3-yl)-3-(4-phenoxyphenyl)-1H-pyrazole-4-carboxamide]
TGI (%) Day 3 (OCI-LY-10 cells; 100 mg/kg PO QD): 33.27%
TGI (%) Day 8 (OCI-LY-10 cells; 100 mg/kg PO QD): 19.00%
TGI (%) Day 11 (OCI-LY-10 cells; 100 mg/kg PO QD): 11.28%

IC50 (ITK kinase): > 1000 nM
IC50 (Btk kinase): < 100 nM
SMILES: NC(=O)c1c(-c2ccc(Oc3ccccc3)cc2)nn([C@@H]2CCN(C(=O)/C=C/CN3CCCC3)C2)c1N [Example 6, (R,E)-5-amino-3-(4-phenoxyphenyl)-1-(1-(4-(pyrrolidin-1-yl)but-2-enoyl)pyrrolidin-3-yl)-1H-pyrazole-4-carboxamide]

IC50 (ITK kinase): > 1000 nM
IC50 (Btk kinase): < 100 nM
SMILES: CS(=O)(=O)NC/C=C/C(=O)N1CC[C@@H](n2nc(-c3ccc(Oc4ccccc4)cc3)c(C(N)=O)c2N)C1 [Example 14, (R,E)-5-amino-1-(1-(4-(methylsulfonamido)but-2-enoyl)pyrrolidin-3-yl)-3-(4-phenoxyphenyl)-1H-pyrazole-4-carboxamide]

IC50 (ITK kinase): > 1000 nM
IC50 (Btk kinase): < 100 nM
SMILES: CC(C)/C=C/C(=O)N1CC[C@@H](n2nc(-c3ccc(Oc4ccccc4)cc3)c(C(N)=O)c2N)C1 [Example 8, (R,E)-5-amino-1-(1-(4-methylpent-2-enoyl)pyrrolidin-3-yl)-3-(4-phenoxyphenyl)-1H-pyrazole-4-carboxamide]

IC50 (ITK kinase): > 1000 nM
IC50 (Btk kinase): < 100 nM
SMILES: NC(=O)c1c(-c2ccc(Oc3ccccc3)cc2)nn([C@@H]2CCN(C(=O)/C=C\C(=O)O)C2)c1N [Example 11, (R,Z)-4-(3-(5-amino-4-carbamoyl-3-(4-phenoxyphenyl)-1H-pyrazol-1-yl)pyrrolidin-1-yl)-4-oxobut-2-enoic Acid]
